Each compound was assayed against T1, P2X7R (Homo sapiens, UniProt Q99572) (assay: Yo-Pro-1 uptake assay (Yo-Pro-1 Assay) in HEK-293 cells transiently transfected with P2X7R). Details: HEK293; compound at 5 μM; 30 μM bzATP stimulus; reading 1 hour after stimulation; transfected HEK-293 cells; read-out: Percentage of activity remains in the presence of the compound at 5 μM, P2X7R (Yo-Pro-1 Assay).
T1 construct: expressed in transfected cells; host or cells: HEK-293
T1 sequence (Q99572 1-595): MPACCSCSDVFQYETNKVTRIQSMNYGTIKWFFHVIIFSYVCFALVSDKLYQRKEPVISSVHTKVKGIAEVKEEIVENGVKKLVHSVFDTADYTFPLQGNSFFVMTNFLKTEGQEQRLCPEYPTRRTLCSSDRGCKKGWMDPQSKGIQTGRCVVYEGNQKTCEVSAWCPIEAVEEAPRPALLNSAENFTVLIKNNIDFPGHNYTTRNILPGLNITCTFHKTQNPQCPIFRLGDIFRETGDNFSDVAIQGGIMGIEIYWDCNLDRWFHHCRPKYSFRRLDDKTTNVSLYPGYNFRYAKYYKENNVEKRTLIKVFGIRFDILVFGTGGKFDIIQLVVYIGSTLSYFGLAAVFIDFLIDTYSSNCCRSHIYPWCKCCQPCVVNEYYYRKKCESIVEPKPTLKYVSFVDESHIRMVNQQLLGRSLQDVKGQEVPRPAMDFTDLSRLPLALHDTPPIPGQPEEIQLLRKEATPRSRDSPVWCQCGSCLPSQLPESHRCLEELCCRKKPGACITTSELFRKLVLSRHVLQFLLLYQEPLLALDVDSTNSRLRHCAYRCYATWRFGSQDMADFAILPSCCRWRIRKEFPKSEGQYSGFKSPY
Format: cell-based
Description: Yo-Pro-1 Iodide (Cat. No Y3603 from Fisher Scientific) is a fluorescent DNA-binding dye with a MW of 629 Da. This method is based upon the Yo-Pro-1 entrance to cells through the dilated or “large pore form” of P2X7R and its binding to intracellular DNA whereby it increases its fluorescence intensity (J. Pharmacol. Exp. Ther. 308, 1053-1061). The dye has an absorption spectrum compatible with excitation at 488 nm by argon laser sources and its emission wavelength is in the range of 515-575 nm. This Yo-Pro-1 uptake was measured in HEK-293 cells transiently transfected with P2X7R (J. Biol. Chem. 290, 7930-7942). In Brief, HEK-293 cells were seeded in growth medium at approximately 20,000 cells/well in a 96-well plate on day 1. Transfection was performed on day 2 using Lipofectamine 2000 with the P2X7R DNA plasmid at the concentration of 1.7 μg/ml. The transfection solution was replaced with the growth medium 4 hours later. Fluorescent assays were conducted on day 4. On day 4, the medium was removed, the cells were washed with phosphate buffered saline (PBS) (Cat. No. MT21040CV from Fisher Scientific). Then, 25 μl of PBS were first loaded to each well followed by 25 μl of various test compounds. The third 25 μl of solution contained a mixture of Yo-Pro-1 and stimulus bzATP (2′(3′)-O-(4-Benzoylbenzoyl)adenosine-5′-triphosphate tri(triethylammonium) salt). The final concentration of Yo-Pro-1 was 2.5 μM and of bzATP 30 μM. Fluorescence increases were measured every 30 minutes in a microplate device with excitation at 475 nm and emission wavelength in the range of 500-550 nm. PPADS (Pyridoxalphosphate-6-azophenyl-2′,4′-disulfonic acid tetrasodium) was used as the positive control. The wells with no test compounds added nor bzATP and only containing PBS and Yo-Pro-1 were served as the negative control (N Contl). The positive control (P Contl) wells were the same as N Contl but contained the stimulus, bzATP in this case.
Data used for analysis were from microplate readings 1 hour after bzATP stimulation. The result of each well was first normalized by its corresponding base microplate reading. The base microplate reading was the first reading right after all components were added. Then, the negative control signal was subtracted from. In the negative control, the test compound and the stimulus were replaced by PBS. An average of six highest values of the plate (AVG) were considered as 100% and the value of each well was divided by AVG and presented as the relative values in percentages.
For comparison of the antagonistic effectiveness of the compounds of this invention among P2X receptors, assays were conducted at 5 μM. Among 55 compounds tested, 29 can reduce the P2X7R activity to […] of the normal activity (Table 2).
Compound `O=C(CCc1ccccc1)NC1CCCN(S(=O)(=O)c2ccc(N3CCOCC3)cc2)C1` (stereo not drawn) [#12] has a remaining activity at 5 µM of 44.3%. Compound `O=C(CCc1ccccc1)NC1CCCN(S(=O)(=O)c2ccc(N3CCCC3)cc2)C1` (stereo not drawn) [#13] has a remaining activity at 5 µM of 0.8%. `CN(C)c1ccc(S(=O)(=O)N2CCCC(NC(=O)CCc3ccccc3)C2)cc1` (stereo not drawn) [#14] gave a remaining activity at 5 µM of -6.1%. For `CCCCNc1ccc(S(=O)(=O)N2CCCC(NC(=O)CCc3ccccc3)C2)cc1` (stereo not drawn) [#15], the remaining activity at 5 µM was -12.2%. `O=C1CCC(N2Cc3c(NC(=O)CCc4ccccc4)cccc3C2=O)C(=O)N1` (stereo not drawn) [#16] was tested, and the remaining activity at 5 µM was 26%. `COCCOc1ccc(S(=O)(=O)N2CCCC(NC(=O)CCc3ccccc3)C2)cc1` (stereo not drawn) [#17] was tested, and the remaining activity at 5 µM was 53.4%. For `CN1CCN(c2ccc(S(=O)(=O)N3CCCC(NC(=O)CCc4ccccc4)C3)cc2)CC1` (stereo not drawn) [#18], the remaining activity at 5 µM was 41.5%. Compound `O=C(NCCc1ccccc1)C1CCN(S(=O)(=O)c2ccc(N3CCCCC3)cc2)CC1` [#20] has a remaining activity at 5 µM of 7%. `O=C(NCCc1ccccc1)C1CCN(S(=O)(=O)c2ccc(N3CCCC3)cc2)CC1` [#21] showed a remaining activity at 5 µM of 36.2%. In the case of `CC(C)(C)OC(=O)N1CCN(c2ccc(S(=O)(=O)N3CCC(C(=O)NCCc4ccccc4)CC3)cc2)CC1` [#22], the remaining activity at 5 µM is reported as 43%. In the case of `O=C(NCCc1ccccc1)C1CCN(S(=O)(=O)c2ccc(N3CCOCC3)cc2)CC1` [#23], the remaining activity at 5 µM is reported as 35.8%. `O=C(NCCc1ccccc1)C1CCCN(S(=O)(=O)c2ccc(N3CCOCC3)cc2)C1` (stereo not drawn) [#24] gave a remaining activity at 5 µM of 32.6%.

Same assay, conditions: HEK-293 cells transiently transfected with P2X7R; 30 μM bzATP as stimulus; readings 1 hour after stimulation; estimated from dose-response curves
For `O=C(CCc1ccccc1)NC1CCCN(S(=O)(=O)c2ccc(N3CCOCC3)cc2)C1` (stereo not drawn) [#12], the IC50 was 6.7 µM. `O=C(CCc1ccccc1)NC1CCCN(S(=O)(=O)c2ccc(N3CCCC3)cc2)C1` (stereo not drawn) [#13] showed an IC50 of 1.6 µM. `CN(C)c1ccc(S(=O)(=O)N2CCCC(NC(=O)CCc3ccccc3)C2)cc1` (stereo not drawn) [#14] gave an IC50 of 1.4 µM. `CCCCNc1ccc(S(=O)(=O)N2CCCC(NC(=O)CCc3ccccc3)C2)cc1` (stereo not drawn) [#15] gave an IC50 of 1 µM. In the case of `O=C1CCC(N2Cc3c(NC(=O)CCc4ccccc4)cccc3C2=O)C(=O)N1` (stereo not drawn) [#16], the IC50 is reported as 3.6 µM. `COCCOc1ccc(S(=O)(=O)N2CCCC(NC(=O)CCc3ccccc3)C2)cc1` (stereo not drawn) [#17] was tested, and the IC50 was 16.1 µM. In the case of `CN1CCN(c2ccc(S(=O)(=O)N3CCCC(NC(=O)CCc4ccccc4)C3)cc2)CC1` (stereo not drawn) [#18], the IC50 is reported as 31.2 µM. `O=C(NCCc1ccccc1)C1CCN(S(=O)(=O)c2ccc(N3CCCCC3)cc2)CC1` [#20] showed an IC50 of 1 µM. In the case of `O=C(NCCc1ccccc1)C1CCN(S(=O)(=O)c2ccc(N3CCCC3)cc2)CC1` [#21], the IC50 is reported as 0.9 µM. `CC(C)(C)OC(=O)N1CCN(c2ccc(S(=O)(=O)N3CCC(C(=O)NCCc4ccccc4)CC3)cc2)CC1` [#22] gave an IC50 of 12.6 µM. `O=C(NCCc1ccccc1)C1CCN(S(=O)(=O)c2ccc(N3CCOCC3)cc2)CC1` [#23] gave an IC50 of 26.6 µM. Compound `O=C(NCCc1ccccc1)C1CCCN(S(=O)(=O)c2ccc(N3CCOCC3)cc2)C1` (stereo not drawn) [#24] has an IC50 of 10.2 µM.

The compounds below were run against T2, P2X2R (Homo sapiens, UniProt Q9UBL9) (assay: Receptor-mediated calcium entrance assay (Calcium Assay), P2X2R). Details: compound at 5 μM, read-out: Percentage of activity remains in the presence of the compound at 5 μM, P2X2R (Calcium Assay).
T2 construct: expressed in transfected cells; host or cells: HEK-293
T2 sequence (Q9UBL9 1-471): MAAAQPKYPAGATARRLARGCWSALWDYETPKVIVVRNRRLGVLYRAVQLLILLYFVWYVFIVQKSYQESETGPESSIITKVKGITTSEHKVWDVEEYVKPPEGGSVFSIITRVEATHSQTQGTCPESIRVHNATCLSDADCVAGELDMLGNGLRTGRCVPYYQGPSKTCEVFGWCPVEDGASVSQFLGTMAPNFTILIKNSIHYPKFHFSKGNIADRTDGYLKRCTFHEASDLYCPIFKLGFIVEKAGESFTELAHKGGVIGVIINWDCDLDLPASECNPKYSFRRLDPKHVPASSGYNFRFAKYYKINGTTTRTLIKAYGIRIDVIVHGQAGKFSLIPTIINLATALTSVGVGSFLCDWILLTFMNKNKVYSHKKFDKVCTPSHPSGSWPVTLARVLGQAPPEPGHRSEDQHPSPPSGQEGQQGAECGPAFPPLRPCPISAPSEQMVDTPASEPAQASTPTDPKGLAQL
Format: cell-based
With `O=C(CCc1ccccc1)NC1CCCN(S(=O)(=O)c2ccc(N3CCOCC3)cc2)C1` (stereo not drawn) [#12] the remaining activity at 5 µM was 64.8%. With `O=C(CCc1ccccc1)NC1CCCN(S(=O)(=O)c2ccc(N3CCCC3)cc2)C1` (stereo not drawn) [#13] the remaining activity at 5 µM was 67.4%. `CN(C)c1ccc(S(=O)(=O)N2CCCC(NC(=O)CCc3ccccc3)C2)cc1` (stereo not drawn) [#14] was tested, and the remaining activity at 5 µM was 72.7%. Work on `CCCCNc1ccc(S(=O)(=O)N2CCCC(NC(=O)CCc3ccccc3)C2)cc1` (stereo not drawn) [#15] yielded a remaining activity at 5 µM of 80.4%. In the case of `O=C1CCC(N2Cc3c(NC(=O)CCc4ccccc4)cccc3C2=O)C(=O)N1` (stereo not drawn) [#16], the remaining activity at 5 µM is reported as 77%. In the case of `COCCOc1ccc(S(=O)(=O)N2CCCC(NC(=O)CCc3ccccc3)C2)cc1` (stereo not drawn) [#17], the remaining activity at 5 µM is reported as 64.9%. `CN1CCN(c2ccc(S(=O)(=O)N3CCCC(NC(=O)CCc4ccccc4)C3)cc2)CC1` (stereo not drawn) [#18] gave a remaining activity at 5 µM of 73.1%. In the case of `O=C(NCCc1ccccc1)C1CCN(S(=O)(=O)c2ccc(N3CCCCC3)cc2)CC1` [#20], the remaining activity at 5 µM is reported as 68.1%. `O=C(NCCc1ccccc1)C1CCN(S(=O)(=O)c2ccc(N3CCCC3)cc2)CC1` [#21] gave a remaining activity at 5 µM of 94.3%. Compound `CC(C)(C)OC(=O)N1CCN(c2ccc(S(=O)(=O)N3CCC(C(=O)NCCc4ccccc4)CC3)cc2)CC1` [#22] has a remaining activity at 5 µM of 85.8%. `O=C(NCCc1ccccc1)C1CCN(S(=O)(=O)c2ccc(N3CCOCC3)cc2)CC1` [#23] was tested, and the remaining activity at 5 µM was 57.7%. `O=C(NCCc1ccccc1)C1CCCN(S(=O)(=O)c2ccc(N3CCOCC3)cc2)C1` (stereo not drawn) [#24] was tested, and the remaining activity at 5 µM was 73.5%.
